Measured values taken from PubChem BioAssay AID248 (DTP/NCI, 2004).
Values joined by “and” are separate entries in the source; they are usually repeats but may differ in a detail not shown here. Equal entries are not always repeated. Toxic doses and inconclusive results are not listed.

System: L1210 leukemia ip in BDF1 mice, survival T/C
Test: NCI In Vivo Anticancer Drug Screen. Data for tumor model L1210 Leukemia (intraperitoneal) in B6D2F1 (BDF1) mice
Settings: endpoint: mean survival time, higher = longer survival
How it was run: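 Read-out is survival time, reported as the treated-group measurement over the vehicle-control measurement.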

[1] = dose: 100.0 mg/kg/injection, schedule: Q04DX003 (ip), vehicle: saline with Tween-80
[2] = dose: 200.0 mg/kg/injection, schedule: Q04DX003 (ip), vehicle: saline with Tween-80
[3] = dose: 400.0 mg/kg/injection, schedule: Q04DX003 (ip), vehicle: saline with Tween-80
[4] = dose: 75.0 mg/kg/injection, schedule: Q01DX001 (ip), vehicle: saline
[5] = dose: 12.5 mg/kg/injection, schedule: Q01DX009 (ip), vehicle: Klucel (hydroxypropylcellulose) (HPC)
[6] = dose: 25.0 mg/kg/injection, schedule: Q01DX009 (ip), vehicle: Klucel (hydroxypropylcellulose) (HPC)
[7] = dose: 50.0 mg/kg/injection, schedule: Q01DX009 (ip), vehicle: Klucel (hydroxypropylcellulose) (HPC)
[8] = dose: 100.0 mg/kg/injection, schedule: Q01DX009 (ip), vehicle: Klucel (hydroxypropylcellulose) (HPC)
[9] = dose: 100.0 mg/kg/injection, schedule: Q04DX003 (ip), vehicle: Klucel (hydroxypropylcellulose) (HPC)
[10] = dose: 200.0 mg/kg/injection, schedule: Q01DX009 (ip), vehicle: Klucel (hydroxypropylcellulose) (HPC)
[11] = dose: 200.0 mg/kg/injection, schedule: Q04DX003 (ip), vehicle: Klucel (hydroxypropylcellulose) (HPC)
[12] = dose: 400.0 mg/kg/injection, schedule: Q04DX003 (ip), vehicle: Klucel (hydroxypropylcellulose) (HPC)
[13] = dose: 400.0 mg/kg/injection, schedule: Q01DX009 (ip), vehicle: Klucel (hydroxypropylcellulose) (HPC)
[14] = dose: 50.0 mg/kg/injection, schedule: Q04DX002 (ip), vehicle: saline with Tween-80

In the case of `Cn1cc(/C=C\C(=O)O)c2nccnc21`, the T/C (dose: 37.5 mg/kg/injection, schedule: Q01DX009 (ip), vehicle: water) is reported as 95 % of control, the T/C (dose: 50.0 mg/kg/injection, schedule: Q01DX009 (ip), vehicle: water) is reported as 100 % of control and the T/C (dose: 75.0 mg/kg/injection, schedule: Q01DX009 (ip), vehicle: water) is reported as 105 % of control. The T/C (dose: 100.0 mg/kg/injection, schedule: Q01DX009 (ip), vehicle: water) was 89 % of control, the T/C (dose: 100.0 mg/kg/injection, schedule: Q04DX003 (ip), vehicle: water) was 108 % of control and the T/C (dose: 150.0 mg/kg/injection, schedule: Q01DX009 (ip), vehicle: water) was 89 % of control. For the same compound, the T/C (dose: 200.0 mg/kg/injection, schedule: Q01DX009 (ip), vehicle: water) was 91 % of control, the T/C (dose: 200.0 mg/kg/injection, schedule: Q04DX003 (ip), vehicle: water) was 106 % of control and the T/C (dose: 300.0 mg/kg/injection, schedule: Q01DX009 (ip), vehicle: water) was 91 % of control.
With `CC1SCC(NC(=O)N(CCCl)N=O)CS1` (configuration not stated) the T/C (dose: 8.0 mg/kg/injection, schedule: Q01DX001 (ip), vehicle: saline with Tween-80) was 150 % of control, the T/C (dose: 12.0 mg/kg/injection, schedule: Q01DX001 (ip), vehicle: saline with Tween-80) was 264 % of control and the T/C (dose: 18.0 mg/kg/injection, schedule: Q01DX001 (ip), vehicle: saline with Tween-80) was 389 % of control. For the same compound, the T/C (dose: 26.0 mg/kg/injection, schedule: Q01DX001 (ip), vehicle: saline with Tween-80) was 368 % of control and the T/C (dose: 60.0 mg/kg/injection, schedule: Q01DX001 (ip), vehicle: saline with Tween-80) was 104 % of control.
For `Nc1c(Cl)ncnc1NC1COC(CO)C1O` (configuration not stated), the T/C (dose: 100.0 mg/kg/injection, schedule: Q01DX001 (ip), vehicle: Klucel (hydroxypropylcellulose) (HPC)) was 100 % of control, the T/C (dose: 200.0 mg/kg/injection, schedule: Q01DX001 (ip), vehicle: Klucel (hydroxypropylcellulose) (HPC)) was 110 % of control and the T/C (dose: 400.0 mg/kg/injection, schedule: Q01DX001 (ip), vehicle: Klucel (hydroxypropylcellulose) (HPC)) was 100 % of control.
For `CCOCC(O)(c1ccc(Cl)cc1)c1ccc(Cl)cc1`, the T/C [1] was 106 % of control, the T/C [2] was 95 % of control and the T/C [3] was 102 % of control.
For `CCCCCC[n+]1cccc(C#N)c1`, the T/C (dose: 18.75 mg/kg/injection, schedule: Q01DX009 (ip), vehicle: saline) was 95 % of control, the T/C (dose: 37.5 mg/kg/injection, schedule: Q01DX009 (ip), vehicle: saline) was 95 % of control and the T/C [4] was 113 % of control. The T/C (dose: 75.0 mg/kg/injection, schedule: Q01DX009 (ip), vehicle: saline) was 94 % of control, the T/C (dose: 75.0 mg/kg/injection, schedule: Q04DX003 (ip), vehicle: saline) was 97 % of control and the T/C (dose: 150.0 mg/kg/injection, schedule: Q01DX001 (ip), vehicle: saline) was 95 % of control. For the same compound, the T/C (dose: 150.0 mg/kg/injection, schedule: Q04DX003 (ip), vehicle: saline) was 101 % of control and the T/C (dose: 300.0 mg/kg/injection, schedule: Q01DX001 (ip), vehicle: saline) was 100 % of control.
In the case of `CCCCN=C(N)c1ccc(NC(=O)c2ccc(C(=O)Nc3ccc(C(N)=NCCCC)cc3)cc2)cc1`, the T/C (dose: 6.0 mg/kg/injection, schedule: Q01DX001 (ip), vehicle: methylcellulose (MC)) is reported as 110 % of control, the T/C (dose: 6.0 mg/kg/injection, schedule: Q01DX Z (ip), vehicle: methylcellulose (MC)) is reported as 212 % of control and the T/C (dose: 12.0 mg/kg/injection, schedule: Q01DX Z (ip), vehicle: methylcellulose (MC)) is reported as 100 % of control. For the same compound, the T/C (dose: 15.0 mg/kg/injection, schedule: Q01DX001 (ip), vehicle: methylcellulose (MC)) was 119 % of control.
For `CCCc1cc2c(cc1CS(=O)(=O)c1ccccc1)OCO2`, the T/C [5] was 97 % of control, the T/C [6] was 112 % of control and the T/C [7] was 108 % of control. For the same compound, the T/C [8] was 101 % of control and 102 % of control, the T/C [9] was 94 % of control and the T/C [10] was 102 % of control. The T/C [11] was 97 % of control and the T/C [12] was 101 % of control.
For `c1ccc(P(CC[As](c2ccccc2)c2ccccc2)CC[As](c2ccccc2)c2ccccc2)cc1`, the T/C [9] was 93 % of control, the T/C [11] was 93 % of control and the T/C [12] was 96 % of control.
In the case of `Cc1cc(C)c(-c2c(C)cc(C)cc2[N+](=O)[O-])c([N+](=O)[O-])c1`, the T/C (dose: 100.0 mg/kg/injection, schedule: Q04DX003 (ip), vehicle: saline) is reported as 93 % of control, the T/C (dose: 200.0 mg/kg/injection, schedule: Q04DX003 (ip), vehicle: saline) is reported as 96 % of control and the T/C (dose: 400.0 mg/kg/injection, schedule: Q04DX003 (ip), vehicle: saline) is reported as 86 % of control.
With `CN(C)c1ccc(C(=O)c2ccccc2)cc1` the T/C [7] was 101 % of control, the T/C [8] was 108 % of control and the T/C [9] was 100 % of control. For the same compound, the T/C [10] was 95 % of control, the T/C [11] was 105 % of control and the T/C [13] was 102 % of control. For the same compound, the T/C [12] was 100 % of control.
With `COc1ccc(NC(=O)Oc2c(C(C)C)cccc2C(C)C)cc1` the T/C [9] was 100 % of control, the T/C [11] was 96 % of control and the T/C [12] was 92 % of control.
In the case of `Cc1ccc(C)c(NC(=O)Oc2ccc(Br)cc2Br)c1`, the T/C [6] is reported as 92 % of control, the T/C [7] is reported as 94 % of control and the T/C [9] is reported as 94 % of control. The T/C [10] was 93 % of control and 114 % of control, the T/C [11] was 87 % of control and the T/C [12] was 110 % of control.
In the case of `CCOC(=O)/C=C(\CBr)OC`, the T/C [5] is reported as 105 % of control, the T/C [6] is reported as 98 % of control and the T/C (dose: 25.0 mg/kg/injection, schedule: Q04DX003 (ip), vehicle: Klucel (hydroxypropylcellulose) (HPC)) is reported as 90 % of control. The T/C [7] was 94 % of control and 103 % of control, the T/C (dose: 50.0 mg/kg/injection, schedule: Q04DX003 (ip), vehicle: Klucel (hydroxypropylcellulose) (HPC)) was 96 % of control and the T/C [9] was 96 % of control.
With `C/C=C(\C)COC(=O)c1ccc([N+](=O)[O-])cc1` the T/C (dose: 100.0 mg/kg/injection, schedule: Q01DX001 (ip), vehicle: other) was 104 % of control, the T/C (dose: 200.0 mg/kg/injection, schedule: Q01DX001 (ip), vehicle: other) was 98 % of control and the T/C (dose: 400.0 mg/kg/injection, schedule: Q01DX001 (ip), vehicle: other) was 93 % of control.
In the case of `O=S(=O)(/C=C\c1ccccc1)N(c1ccccc1)c1ccccc1`, the T/C [9] is reported as 102 % of control, the T/C [11] is reported as 110 % of control and the T/C [12] is reported as 96 % of control.
In the case of `CCOC(=O)NCCCCN(C(C)=O)n1cnc2c(SC)ncnc21`, the T/C (dose: 12.5 mg/kg/injection, schedule: Q04DX002 (ip), vehicle: saline with Tween-80) is reported as 100 % of control, the T/C (dose: 25.0 mg/kg/injection, schedule: Q04DX002 (ip), vehicle: saline with Tween-80) is reported as 94 % of control and the T/C [14] is reported as 97 % of control.
For `OC(c1ccc(C2CC2)cc1)(c1ccc(C2CC2)cc1)c1ccc(C2CC2)cc1`, the T/C [1] was 104 % of control, the T/C [2] was 102 % of control and the T/C [3] was 91 % of control.
In the case of `O=C1CC(c2ccc(O)cc2)CC(=O)C1C(C1CC=CCC1)N(CCCl)CCCl` (configuration not stated), the T/C [8] is reported as 105 % of control and 104 % of control, the T/C [9] is reported as 103 % of control and the T/C [10] is reported as 105 % of control and 100 % of control. The T/C [11] was 106 % of control and 104 % of control, the T/C [13] was 110 % of control and 100 % of control and the T/C [12] was 110 % of control and 101 % of control.
`O=C(Nc1ccccc1Cl)Nc1cc(Cl)ccc1Cl` was tested, and the T/C (dose: 100.0 mg/kg/injection, schedule: Q04DX002 (ip), vehicle: saline + alcohol) was 100 % of control, the T/C (dose: 200.0 mg/kg/injection, schedule: Q04DX002 (ip), vehicle: saline + alcohol) was 100 % of control and the T/C (dose: 400.0 mg/kg/injection, schedule: Q04DX002 (ip), vehicle: saline + alcohol) was 92 % of control.
For `S=C(NNc1ccccc1)NC1CCCCC1`, the T/C (dose: 150.0 mg/kg/injection, schedule: Q01DX009 (ip), vehicle: saline with Tween-80) was 95 % of control, the T/C (dose: 225.0 mg/kg/injection, schedule: Q01DX009 (ip), vehicle: saline with Tween-80) was 97 % of control and the T/C (dose: 335.0 mg/kg/injection, schedule: Q01DX009 (ip), vehicle: saline with Tween-80) was 92 % of control.
With `O=c1oc(-c2cccc([N+](=O)[O-])c2)nc2cc(Cl)ccc12` the T/C [14] was 90 % of control, the T/C (dose: 100.0 mg/kg/injection, schedule: Q04DX002 (ip), vehicle: saline with Tween-80) was 93 % of control and the T/C (dose: 200.0 mg/kg/injection, schedule: Q04DX002 (ip), vehicle: saline with Tween-80) was 93 % of control. The T/C (dose: 400.0 mg/kg/injection, schedule: Q04DX002 (ip), vehicle: saline with Tween-80) was 107 % of control.
`O=C(CN1CCCCC1)Nc1ccc(S(=O)(=O)c2ccc([N+](=O)[O-])cc2)cc1` was tested, and the T/C [4] was 87 % of control.
